Where a SMILES comes first, the peptide text is derived from it. Where no end group is shown, it is not given here. [ ]: non-standard residue; d: D form. Ahx = NCCCCCC(=O)O
Experiments:
PDLSC cells = assay: cell viability test (trypan blue count) on peptide-coated titanium discs; assay type: cell-based; conditions: for cytotoxicity for cells: administered alone, 3 days of incubation, FIG. 5; for Total cell number (viable cells), Average: average of #1 and #2; for Total cell number (viable cells), Average / Total cell number (viable cells), #1 / Total cell number (viable cells), #2: PDLSC, 3 days culture, disc coated per Table 2 (peptides 100 μM, BMP-2 100 ng/ml); for Total cell number (viable cells), #1: replicate #1; for Total cell number (viable cells), #2: replicate #2
Experimental: In order to evaluate whether or not a titanium binding peptide-linked osteogenic peptide (SEQ ID NO: 3 or SEQ ID NO: 4) and a titanium-binding peptide (SEQ ID NO: 1) are cytotoxic when these peptides are administered alone, a cell viability test was performed.
Specifically, one titanium disc was placed in each well of a 24-well low-attachment polystyrene plate and blocked with a blocking solution (0.1 M NaHCO3 (pH 8.6), 5 mg/ml BSA, 0.02% NaN3 (optional), filter sterilize) for at least 1 hour. Next, the blocking solution was discarded, and each well was washed three times or more with a washing solution (DPBS: Dulbeccos phosphate buffered saline), after which 50 μl of the solution shown in Table 2 below was dispensed and coated on the surface of each titanium disc. Each well was incubated at room temperature for 15 hours, and then washed three times or more with a washing solution (DPBS). Next, 3×10^4 PDLSC cells suspended in 50 μl of a medium (Minimum Essential Medium Eagle Alpha Modifications, Hyclone, USA) containing 10% FBS (Fetal Bovine Serum) and 1% antibiotic-antimycotic solution (Thermo Fisher Scientific, USA) were dispensed per titanium disc. […] Next, the cells were detached, stained with trypan blue, and counted with a hematocytometer to determine the number of viable cells.

[1] = luminescent image analysis with enhanced chemiluminescence (ECL) solution; assay type: binding; conditions: ECL solution as substrate, FIG. 2
Experimental: Specifically, washing was performed at least three times with suitable washing solution to remove 2,2′-AZINO-BIS used as a substrate in the above procedure, and then analysis was performed with a luminescent image analyzer using enhanced chemiluminescence (ECL) solution.

[2] = binding assay using an avidin-biotin complex (binding affinity for titanium); conditions: biotin-labeled peptide 100 nM to 1 μM, 15 hours at room temperature, FIG. 1
Experimental: In order to examine the binding affinities of the peptides synthesized in Example 1 and Comparative Examples 1 and 2 for titanium, the peptides were labeled with biotin. Each of the peptides was biotinylated using EZ-Link Sulfo-NHS-Biotin (Pierce Biotechnology, USA) according to the manufacturer's instruction, and unbound byproducts were removed by ultrafiltration that is a membrane separation method based on a pressure difference. The molecular weights of the synthesized products were measured by mass spectrometry. The synthesized products were analyzed and purified by reverse phase liquid chromatography. For analysis, a C18 column having a diameter of 4.6 mm was used, and 0.1% TFA/H2O and 0.092% TFA/acetonitrile were flushed onto the column at a rate of 1 ml/min with a gradient of 0-60% for 30 minutes. The wavelength of the UV detector used was 220 nm. For purification, a column having a diameter of 2.2 cm was used, and a flow rate of 20 ml/min and the solvent and detection wavelength as described above were used. Only the biotin-labeled peptide fraction was collected, and concentrated using a rotary evaporator to remove the solvent, followed by freeze-drying.
The binding affinity of the titanium-binding peptide for titanium was measured by performing a binding assay using an avidin-biotin complex. Specifically, one titanium disc was placed in each well of a 24-well polystyrene plate, and then blocked with a blocking buffer (0.1 M NaHCO3 (pH 8.6), 5 mg/ml BSA, 0.02% NaN3 (optional), filter sterilize) for at least one hour. […] Each titanium disc was treated with 50 μl of 1% SDS solution to stop the reaction, and the absorbance at 405 nm was measured.

[3] = test system: periodontal ligament stem cells (PDLSCs); assay: mineralization of periodontal ligament stem cells (Alizarin red S) on coated titanium discs; assay type: cell-based; conditions: day 18; significant p<0.05, not significant p>0.05
Experimental: Specifically, one titanium disc was placed in each well of a 24-well low-attachment polystyrene plate and blocked with a blocking solution (0.1 M NaHCO3 (pH 8.6), 5 mg/ml BSA, 0.02% NaN3 (optional), filter sterilize) for at least 1 hour. […] Each well was incubated at room temperature for 15 hours, and then washed three times or more with a washing solution (DPBS). Next, 3×10^4 PDLSC cells suspended in 50 μl of a medium (Minimum Essential Medium Eagle Alpha Modifications, Hyclone, USA) containing 10% FBS (Fetal Bovine Serum) and 1% antibiotic-antimycotic solution (Thermo Fisher Scientific, USA) were dispensed per titanium disc.

[4] = maximum binding amount of titanium-binding peptide, avidin-biotin binding assay
Experimental: To examine the maximum binding amount of the titanium-binding peptide TBP (SEQ ID NO: 1) per unit area of the titanium disc surface, a binding assay using an avidin-biotin complex was performed. Specifically, one titanium disc was placed in each well of a 24-well polystyrene plate, and then blocked with a blocking buffer (0.1 M NaHCO3 (pH 8.6), 5 mg/ml BSA, 0.02% NaN3 (optional), filter sterilize) for at least one hour. Next, the blocking buffer was discarded, and each titanium disc was strongly washed six times or more with a washing buffer (TBS+0.1% [v/v] Tween-20), after which 50 μl of each of the titanium-binding peptide TBP (SEQ ID NO: 1) of Example 1 and the peptides TBP-C(SEQ ID NO: 2) and ZBP (SEQ ID NO: 5, Korean Patent Application No. 10-2015-0048441) of Comparative Examples 1 and 2, which were biotin-labeled, synthesized, separated and purified in Example 3-1, was dispensed to the surface of each titanium disc at a concentration ranging from 100 nM to 40 mM. Each titanium disc was incubated at room temperature for 15 hours, and then washed strongly with a washing buffer, and 50 μl of a 1:500 dilution of ExtrAvidin-peroxidase (Cat. #E2886, Sigma-Aldrich, USA) in a blocking buffer was dispensed to the surface of each titanium disc. Each titanium disc was incubated at room temperature for 1 hour, and then washed strongly with a washing buffer, after which 50 μl of a substrate solution (2,2′-AZINO-BIS, Cat. #A3219, Sigma-Aldrich, USA) was dispensed to the surface of each titanium disc and allowed to react at room temperature for 20 minutes so as to develop color. Each titanium disc was treated with 50 μl of 1% SDS solution to stop the reaction, and the absorbance at 405 nm was measured.

binding to titanium disc detected by luminescent image analyzer [1] | concentration showing the maximum absorbance value ([4]; 100 nM to 40 mM tested, absorbance at 405 nm, FIGS. 3 and 4) | maximum amount of titanium-binding peptide bound to the surface of one titanium disc ([4]; back-calculation from molecular weight and dispensing amount, disc diameter 10 mm) | amount of titanium-binding peptide fixed per mm^2 of the titanium disc surface ([4]; disc diameter 10 mm) | Compound | cytotoxicity for cells (PDLSC cells) | Total cell number (viable cells), Average (PDLSC cells) | Total cell number (viable cells), #1 (PDLSC cells) | Total cell number (viable cells), #2 (PDLSC cells) | binding to the titanium disc surface (absorbance at 405 nm) [2] | mineralization (absorbance at 570 nm), difference versus NT (negative control) group [3]
 |  |  |  | CC[C@H](C)[C@H](NC(=O)[C@H](CC(=O)O)NC(=O)[C@@H]1CCCN1C(=O)[C@H](CCCNC(=N)N)NC(=O)[C@H](CCCNC(=N)N)NC(=O)[C@H](Cc1ccccc1)NC(=O)[C@H](CCCCN)NC(=O)[C@H](CCCCN)NC(=O)[C@H](CO)NC(=O)[C@H](CCCCN)NC(=O)[C@H](CO)NC(=O)[C@H](CCCNC(=N)N)NC(=O)[C@H](CC(C)C)NC(=O)CNC(=O)CCCCCNC(=O)[C@H](Cc1c[nH]cn1)NC(=O)[C@@H](NC(=O)[C@@H](NC(=O)[C@@H]1CCCN1C(=O)[C@H](CCCNC(=N)N)NC(=O)[C@H](Cc1c[nH]cn1)NC(=O)CNC(=O)[C@@H](NC(=O)[C@H](Cc1ccc(O)cc1)NC(=O)[C@H](CC(N)=O)NC(=O)[C@H](CC(C)C)NC(=O)[C@@H](N)CO)[C@@H](C)O)C(C)C)C(C)C)C(=O)N[C@@H](CCC(N)=O)C(=O)N[C@@H](Cc1ccc(O)cc1)C(=O)N1CCC[C@H]1C(=O)N[C@@H](CC(=O)O)C(=O)N[C@@H](C)C(N)=O [TBP-Linker-osteogenic peptide] (H-SLNYTGHRPVVH[Ahx]GLRSKSKKFRRPDIQYPDA-NH2) | not cytotoxic | 6.8 × 10^4 | 6.0 × 10^4 | 7.5 × 10^4 |  | 
 |  |  |  | GLRSKSKKFRRPDIQYPDA-NH2 [Osteogenic peptide, reference compound] |  | 7.0 × 10^4 | 7.5 × 10^4 | 6.5 × 10^4 |  | 
 |  |  |  | SLNYTGHRPVVHGLRSKSKKFRRPDIQYPDA-NH2 [TBP-osteogenic peptide] | not cytotoxic | 7.8 × 10^4 | 7.5 × 10^4 | 8.0 × 10^4 |  | 
hardly bind to a titanium disc |  |  |  | VSPFGTKWSPFV (Zirconia Binding Peptide) [ZBP] |  |  |  |  | do not bind to the titanium disc surface | 
binds to a titanium disc | 100 µM | 8.025 µg | about 0.1022 μg per mm^2 | SLNYTGHRPVVH-NH2 [TBP] | not cytotoxic | 7.0 × 10^4 | 7.0 × 10^4 | 7.0 × 10^4 | binds to the titanium disc surface in a concentration-dependent manner | no statistically significant difference

Compound | binding to titanium disc detected by luminescent image analyzer [1] | concentration showing the maximum absorbance value ([4]; 100 nM to 40 mM tested, absorbance at 405 nm, FIGS. 3 and 4) | maximum amount of titanium-binding peptide bound to the surface of one titanium disc ([4]; back-calculation from molecular weight and dispensing amount, disc diameter 10 mm) | amount of titanium-binding peptide fixed per mm^2 of the titanium disc surface ([4]; disc diameter 10 mm) | cytotoxicity for cells (PDLSC cells) | Total cell number (viable cells), Average (PDLSC cells) | Total cell number (viable cells), #1 (PDLSC cells) | Total cell number (viable cells), #2 (PDLSC cells) | binding to the titanium disc surface (absorbance at 405 nm) [2] | mineralization (absorbance at 570 nm), difference versus NT (negative control) group [3]
SLNATGARAVVA [TBP-C] | hardly bind to a titanium disc |  |  |  |  |  |  |  | do not bind to the titanium disc surface | 
